This note sets out measurements from patent EP1739169B1, “Clinical diagnostic reagent comprising glucose 6-phosphate dehydrogenase (G6PDH), method for stabilizing G6PDH, and use of a stabilizer for G6PDH” (SYSMEX CORPORATION, priority 2005, dated 2007).

In one series the test system is G6PDH. Kind of series: Residual activity of G6PDH in CK activity measurement reagent after heat loading at 37°C (NADPH formation, absorbance at 340 nm). The series is classed as biochemical. The following applies: heat loading at 37°C for 5 days; for G6PDH residual activity: relative to reagent without heat loading. The procedure: (§1) Aminoguanidine was added to the above composition to prepare three kinds of reagents different in the concentration of aminoguanidine. The concentrations of aminoguanidine in these reagents were 10 mM, 20 mM and 40 mM respectively. After these reagents were subjected to heat loading at 37°C for 5 days, the residual activity of G6PDH was measured and the residual amount of SH group in NAC was quantified.
The activity of G6PDH was measured in the following manner. First, a solution wherein 20 mM magnesium chloride, 0.6 mM NADP and 0.5 mM G6P were dissolved in a solution containing 0.1 M glycylglycine (pH 8.5) was prepared. When 300 µl of this solution was mixed with 1 µl of the first reagent, NADPH is formed by the activity of G6DPH. When NADPH is formed, the absorbance at a wavelength of 340 nm is increased, and thus this increase is measured to determine the activity of G6PDH.
(§2) In Table 1, the residual activity of G6PDH and the residual amount of SH group of NAC are expressed in percentage. These values are those relative to the activity of G6PDH and the amount of SH group of NAC in each reagent which without subjection to heat loading, was measured by the method described in Example 1. Table 1 […]

The nature of series [1]: Residual amount of SH group of NAC in the reagent after heat loading at 37°C (quantification with DTNB, absorbance at 412 nm). Format: physicochemical. The conditions noted are these: heat loading at 37°C for 5 days; for SH group residual amount: relative to reagent without heat loading. On the procedure: as §1
The quantification of SH group was carried out by using DTNB (5,5'-dithiobis(2-nitrobenzoic acid)). When DTNB is added to the reagent where NAC is present, disulfide linkages corresponding to the amount of SH groups in the NAC are cleaved to generate 5-mercapto-2-nitrobenzoic acid. When 5-mercapto-2-nitrobenzoic acid is generated, the absorbance at a wavelength of 412 nm is increased, and thus this increase can be measured to determine the amount of SH groups in the reagent.
as §2

The structures appear in SMILES notation.

Take `CC(=O)NN` [acetohydrazine, reference compound]: in the series with G6PDH, the “activity of G6PDH after heat loading (in words)” value was “the activity of G6PDH was lost”. Also, the G6PDH residual activity in the series on G6PDH (stabilizer 20 mM in reagent) was determined as 84.3%; with G6PDH (stabilizer 40 mM in reagent), 87.8%. Also, the “amount of SH group of NAC after heat loading (in words)” value in series [1] is recorded as “NAC was deteriorated to reduce the amount of SH group”. Further, the “SH group residual amount” value in series [1] (stabilizer 20 mM in reagent) was 78.4%; in series [1] (stabilizer 40 mM in reagent), 77.7%.
On to `N=C(N)NN` [aminoguanidine], for which, in the series on G6PDH, the “activity of G6PDH after heat loading (in words)” value was “the activity of G6PDH could be maintained”. In addition, the figures for the G6PDH residual activity in the series with G6PDH (stabilizer 10 mM in reagent), in the series with G6PDH (stabilizer 20 mM in reagent) and with G6PDH (stabilizer 40 mM in reagent) were 88.2%, 92.6% and 94.8%, respectively. The “amount of SH group of NAC after heat loading (in words)” value in series [1] is given as “without reducing the amount of SH group”. Moreover, the “SH group residual amount” value in series [1] (stabilizer 10 mM in reagent) stood at 92.2%; in series [1] (stabilizer 20 mM in reagent), 95.4%; in series [1] (stabilizer 40 mM in reagent), 94.1%.
